Measured values: patent US20150065440A1 (Progen Pharmaceuticals Limited, priority 2007, published 2015)

Assay type: in vivo, Sprague-Dawley rats
Settings: rat, in vivo, iv
Description: Adult male Sprague-Dawley (SD) rats (approx 300 g) were used for the experiment. Femoral artery cannulae was implanted and exteriorised following isoflurane anaesthesia. Jugular vein artery cannulae was implanted and exteriorized. […]. Blood samples (˜325 μL) were collected into sample tubes containing the anticoagulant sodium citrate from femoral artery catheter pre-dose and at 5, 20 minutes and 2, 5, 8, 12, 24, and 48 hours post-dose, and kept at reduced temperature (approx 4° C.) until centrifuged. Blood samples were centrifuged, plasma separated and 50 μL aliquot of the plasma transferred to a scintillation vial for counting. At the end of the experimental period animals were euthanased via a lethal overdose of pentobarbital. The level of radioactivity in the plasma was measured following mixing of samples with Packard Ultima Gold liquid scintillation counting cocktail. Counting was conducted on a Beckman liquid scintillation counter (LS6500) or Packard TriCarb liquid scintillation counter for 10 minutes per sample. Results (DPM, calculated from an in-built quench curve in the counter) were corrected for background prior to any calculations. The pharmacokinetic parameters were calculated using PK Solutions 2.0 software (Summit Research Services, Ohio, U.S.A.) and are summarised in Table 11 below.

Half-life (iv): 10.3 h
SMILES: CC(C)CCC[C@@H](C)[C@H]1CC[C@H]2[C@@H]3CCC4CC(OCc5cn([C@@H]6O[C@H](COS(=O)(=O)[O-])[C@@H](O[C@H]7O[C@H](COS(=O)(=O)[O-])[C@@H](O[C@H]8O[C@H](COS(=O)(=O)[O-])[C@@H](OS(=O)(=O)[O-])[C@H](OS(=O)(=O)[O-])[C@H]8OS(=O)(=O)[O-])[C@H](OS(=O)(=O)[O-])[C@H]7OS(=O)(=O)[O-])[C@H](OS(=O)(=O)[O-])[C@H]6OS(=O)(=O)[O-])nn5)CC[C@]4(C)[C@H]3CC[C@]12C.[Na+].[Na+].[Na+].[Na+].[Na+].[Na+].[Na+].[Na+].[Na+].[Na+] (stereo partly drawn) [Compound 70, 4-(Cholestan-3-yl-oxymethyl)[1,2,3]triazol-1-yl 2,3,4,6-tetra-O-sodium sulfonato-α-D-glucopyranosyl-(1→4)-2,3,6-tri-O-sodium sulfonato-α-D-glucopyranosyl-(1→4)-1-deoxy-2,3,6-tri-O-sodium sulfonato-β-D-glucopyranoside]
